According to patent US9603922B2, “Modulation of NKT cell activity with antigen-loaded CD1d molecules” (VACCINEX, INC., priority 2007, dated 2017):

B1: αGalCer/sCD1d: soluble monomeric mouse β2m-CD1d, His-tagged, loaded with αGalCer (protein)
chain: IQKTPQIQVYSRHPPENGKPNILNCYVTQFHPPHIEIQMLKNGKKIPKVEMSDMSFSKDWSFYILAHTEFTPTETDTYACRVKHASMAEPKTVYWDRDMGGGGSGGSGSGGGSEAQQKNYTFRCLQMSSFANRSWSRTDSVVWLGDLQTHRWSNDSATISFTKPWSQGKLSNQQWEKLQHMFQVYRVSFTRDIQELVKMMSPKEDYPIEIQLSAGCEMYPGNASESFLHVAFQGKYVVRFWGTSWQTVPGAPSWLDLPIKVLNADQGTSATVQMLLNDTCPLFVRGLLEAGKSDLEKQEKPVAWLSSVPSSADGHRQLVCHVSGFYPKPVWVMWMRGDQEQQGTHRGDFLPNADETWYLQATLDVEAGEEAGLACRVKHSSLGGQDIILYWSSGSGGHHHHHH

Legend:
iNKT cells in PBMC = experiment: iNKT frequency in peripheral blood during systemic treatment; assay type: in vivo, mouse; details: PBMC 3 days after third i.v. injection
Protocol: FIG. 3: iNKT expansion in blood during systemic treatment with αGalCer loaded recombinant CD1d molecules. Mice were bled after the third injection of either PBS (control) αGalCer (0.4 μg), αGalCer/CD1d-anti-Her2 fusion protein (Fusion, 40 μg), or αGalCer/sCD1d (sCD1d, 20 μg). NKT cells were stained in PBMCs using the CD1d-Tetramer-PE and anti CD3 FITC antibody. a representative dot blot of one mouse from each group. b graph representing several mice per group expressed as CD1d tetramer positive and CD3+ cells as percentage of total PBMC.
Increased frequency of iNKT cells during systemic treatment: normally iNKT cells are not detectable in mouse peripheral blood as shown on FIG. 3. In contrast, they became clearly detectable upon systemic treatment with recombinant αGalCer/CD1d molecules, whereas there was no change with αGalCer alone. FIG. 3a gives representative dot plots of FACS staining with CD1d-tetramer+anti-CD3 on PBMC 3 days after the third injection with either PBS, free αGalCer, αGalCer/CD1d-anti HER2, or αGalCer/sCD1d (five mice per group, i.v., injection every 3 days).

[1] = test system: splenocytes, CD11c+ CD40+ DC; experiment: Mature DC (CD11c+ CD40+) in splenocyte cultures of OVA-immunized mice; assay type: cell-based, mouse; details: same cultures, following restimulation
Protocol: FIG. 8: αGalCer loaded sCD1d acts as a strong adjuvant for the expansion of antigen-specific T cells upon active immunization. a kinetics of expansion of H-2K^b/OVA specific CTLs. Mice were primed with 200 μg ovalbumin either as such (i.v.) or with MONTANIDE™ adjuvant (3:7 ratio, s.c.) or with 1 μg αGalCer or 20 μg αGalCer/sCD1d (i.v.). Mice were bled every 5-7 days and PBMC were stained with H-2K^b/oVA tetramer+anti-CD8. Results were expressed as tetramer+ and CD8+ […] as a percentage of total CD8+ T cells. Mice were boosted with OVA peptide (20 μg) on day 22 employing the same adjuvants and route of injection as for primary immunization. b Ten days later, mice were sacrificed and splenocytes were cultured another five days either with no stimuli or with the same stimuli and adjuvants as for the in vivo boost. Frequency of OVA specific T cells was measured as in a. c The presence of mature DC in the same cultures as in b was analyzed by surface staining with anti CD11c and anti CD40 antibodies.
Together with active OVA immunization: An adjuvant effect has previously been attributed to free αGalCer and its potential use in vaccination has been proposed (Silk, J. D., et al. J Clin Invest 114:1800-1811 (2004)). […]

Molecule | Frequency of iNKT cells in peripheral blood (iNKT cells in PBMC) | Frequency of mature DC (CD11c+CD40+) [1]
CCCCCCCCCCCCCCCCCCCCCCCCCC(=O)N[C@@H](CO[C@H]1O[C@H](CO)[C@H](O)[C@H](O)[C@H]1O)[C@H](O)[C@H](O)CCCCCCCCCCCCCC [αGalCer, α-galactosylceramide, reference compound] | no change | –
B1 | – | increased frequency of mature DC
